# Assay results published in patent publication US5668134A, “Method for preventing or reducing photosensitivity and/or phototoxicity reactions to medications” (priority 1994, dated 1997).
# Values joined by “and” are separate entries in the source; they are usually repeats but may differ in a detail not shown here. Identical values can stand only once. Counter-ions that a name gives are not always drawn.
# How the values were obtained:
# [1] = Example 5: lomefloxacin plasma concentrations; settings: for concentration at 14 h: Hour 14, mean; for plasma concentration, Hour 86: 72 hours following last active dose
# [2] = Pharmacokinetics of lomefloxacin in humans (general description); type: in vivo, human
# Pseudomonas aeruginosa = experiment: Activity in vitro and in clinical infections; type: cell-based
# [3] = test system: skin of healthy volunteers; experiment: Example 5: regression of delayed MEDUVA on plasma concentration
# Description: The relationship between plasma concentration at time of irradiation and delayed MEDUVA was explored using regression analysis by testing the equality of the slopes of the regression of delayed MEDUVA on plasma concentration, obtaining estimates of the parameters of the regression line, and determining the correlation coefficient.
# [4] = Pharmacokinetics in renally impaired patients; type: in vivo, human; settings: single doses
# patients = experiment: Clinical trials, adverse events; type: in vivo, human
# Description: Photosensitivity and/or phototoxicity reactions have been reported in clinical trials of lomefloxacin HCl to varying degrees. […] These photosensitivity and/or phototoxicity reactions have also occurred in subjects exposed to shaded or diffuse light, including exposure through glass.
# In clinical trials, most of the adverse events reported were mild to moderate in severity and transient in nature. During these clinical investigations, 2869 patients received MAXAQUIN®. In 2.6% of the patients, lomefloxacin was discontinued because of adverse events, primarily involving the gastrointestinal system (0.7%), skin (1.0%), or central nervous system (0.5%). The adverse clinical events with the highest incidence (≥1%) in patients, regardless of relationship to drug, were nausea (3.7%), headache (3.2%), photosensitivity (2.4%), dizziness (2.3%), and diarrhea (1.4%).
# [5] = test system: bacterial enzyme DNA gyrase; experiment: Interference with bacterial DNA gyrase; type: biochemical
# [6] = test system: skin of healthy volunteers; design: species or system human; settings: in vivo
# Description: This study describes a randomized, single site, double-blind, two treatment, two period, two sequence, cross-over clinical pharmacology study which was performed according to FDA regulations in 27 healthy normal volunteers with fair skin that could easily burn when exposed to sunlight, to assess the photosensitivity and/or phototoxicity potential of oral 400 mg lomefloxacin hydrochloride (MAXAQUIN®) administered once daily for 4 consecutive days either in the morning (morning dose group), as described hereinbelow, or in the early evening (evening dose group), as described hereinbelow. Irradiation and evaluation of irradiated sites began at 2 hours after the final morning dose of lomefloxacin HCl for the morning dosing group, and began 16 hours after the final evening dose of lomefloxacin HCl for the evening dosing group.
# "Baseline MED" was defined as the lowest dose of UVA radiation alone, or UVA and UVB radiation, that produced a minimal perceptible erythema filling a 1 cm^2 patch of skin 24 hours post radiation.
# "Delayed MED" was defined as the lowest dose of UVA radiation alone, or UVA and UVB radiation, that produced a minimal perceptible erythema filling a 1 cm^2 patch of skin, when testing the area 24, 48 and 72 hours post radiation.
# "Immediate MED" was defined as the lowest dose producing minimal perceptible erythema filling a 1 cm^2 patch of skin when testing the area 0, 3, and 6 hours post radiation.
# After all baseline procedures, including determination of baseline MEDUVA and MEDUVA+UVB values 24 hours post-radiation, were completed, all subjects started Study Day 1 of Treatment Period 1 with an evening dose of study medication, and completed this phase of the treatment regime with a morning dose of study medication on Study Day 5. Two hours after the final morning dose, and 16 hours after the last evening dose, a randomly selected site composed of six patches of skin, each with an area of one square centimeter, on the back or buttock of the subject was irradiated with incremental amounts of energy. Immediately following irradiation (0 hour), and at 3, 6, 24, 48 and 72 hours following irradiation, each skin patch area was evaluated to determine the MEDs, and assess the severity of skin reaction using a five-grade system, as described hereinbelow. The lowest of the MEDs determined at 0, 3 and 6 hours post-radiation were referred to as immediate MEDs, and the lowest of the MEDs determined at 24, 48 and 72 hours post-radiation were referred to as delayed MEDs.
# The source of radiation employed was an Oriel (Santa Monica, Calif.) Xenon Arc 1000 watt solar simulator, with the following filters: WG320 filter (1 mm thick, emitting full spectrum UVA and UVB radiation), WG335 filter (3 mm thick, emitting almost exclusively UVA radiation) or UG11 filter (to filter infrared radiation).
# For predrug exposure MED determination, 2 sets each with six 1 cm^2 patches on the back or buttocks were irradiated with increasing doses of UVA and UVB radiation, and UVA radiation alone, up to 7 days prior to beginning of drug treatment. With respect to UVA light source, irradiation began at 5 J/cm^2, and was increased by increments of 5 J/cm^2 using a different skin patch for each exposure. The maximum radiation dose was 30 J/cm^2. Subjects with MED greater than 30 J/cm^2 were excluded from the study. […] A different skin patch was used for each exposure.
# Two hours after the administration of the last dose of Treatment Period 1 (a.m. dose), the two randomly selected sites on each subject's back or buttocks were exposed one to UVA and UVB radiation, and one to UVA radiation alone. In order to protect the subjects from excessive radiation, as well as assess the true Minimum Erythema Dose (MED), the posttreatment irradiation doses for each subject was adjusted in accordance with their pretreatment MEDs. The following table was used to determine each subject's minimum and maximum posttreatment radiation dose: […]
# [7] = human, plasma, mean, a.m. dosing
# [8] = human, plasma, mean, p.m. dosing
# [9] = regardless of relationship to drug
smiles,measurement,setting,value
"CCn1cc(C(=O)O)c(=O)c2cc(F)c(N3CCNC(C)C3)c(F)c21 (racemic) [lomefloxacin HCl, monohydrochloride salt of (±)-1-ethyl-6,8-difluoro-1,4-dihydro-7-(3-methyl-1-piperazinyl)-4-oxo-3-quinolinecarboxylic acid]",AUC,[1]; [7],47000 ng·h/mL
same,AUC,[1]; [8],40000 ng·h/mL
same,Cmax,[1]; [7],3000 ng/mL
same,Cmax,[1]; [8],2900 ng/mL
same,Tmax,"[1]; human, plasma, Tmax, mean, a.m. dosing, sample hour scale",14.9 h
same,Tmax,"[1]; human, plasma, Tmax, mean, p.m. dosing",2.9 h
same,concentration at 2 h,"[1]; human, plasma, plasma concentration, Hour 2, mean, mean, a.m. dosing, 12 hours prior to last active dose",1100 ng/mL
same,concentration at 2 h,"[1]; human, plasma, plasma concentration, Hour 2, mean, mean, p.m. dosing, 2 hours following last active dose",2900 ng/mL
same,concentration at 14 h,"[1]; human, plasma, plasma concentration, mean, a.m. dosing, immediately prior to last active dose",300 ng/mL
same,concentration at 14 h,"[1]; human, plasma, plasma concentration, mean, p.m. dosing, 14 hours following last active dose",1000 ng/mL
same,concentration at 2 h,"[1]; human, plasma, plasma concentration, Hour 16, individual subjects, a.m. dosing, 2 hours following last active dose",2920 ng/mL
same,concentration at 2 h,"[1]; human, plasma, plasma concentration, Hour 16, mean, mean, a.m. dosing, 2 hours following last active dose",3100 ng/mL
same,concentration at 16 h,"[1]; human, plasma, plasma concentration, Hour 16, mean, mean, p.m. dosing, 16 hours following last active dose",800 ng/mL
same,concentration at 5 h,"[1]; human, plasma, plasma concentration, Hour 19, individual subjects, a.m. dosing, 5 hours following last active dose",1850 ng/mL
same,concentration at 5 h,"[1]; human, plasma, plasma concentration, Hour 19, mean, mean, a.m. dosing, 5 hours following last active dose",2200 ng/mL
same,concentration at 19 h,"[1]; human, plasma, plasma concentration, Hour 19, mean, mean, p.m. dosing, 19 hours following last active dose",600 ng/mL
same,concentration at 24 h,"[1]; human, plasma, plasma concentration, Hour 38, mean, mean, a.m. dosing, 24 hours following last active dose",300 ng/mL
same,concentration at 38 h,"[1]; human, plasma, plasma concentration, Hour 38, mean, mean, p.m. dosing, 38 hours following last active dose",100 ng/mL
same,"plasma concentration, Hour 16","[1]; individual subjects, a.m. dosing, 2 hours following last active dose, 120 min",2420 ng/mL and 3160 ng/mL and 3730 ng/mL and 3000 ng/mL and 3660 ng/mL and 2650 ng/mL and 2840 ng/mL and 2950 ng/mL and 3050 ng/mL and 2940 ng/mL and 4040 ng/mL and 2580 ng/mL
same,"plasma concentration, Hour 19","[1]; individual subjects, a.m. dosing, 5 hours following last active dose, 300 min",1710 ng/mL and 1810 ng/mL and 2370 ng/mL and 2360 ng/mL and 2280 ng/mL and 1780 ng/mL and 2060 ng/mL and 1750 ng/mL and 1720 ng/mL and 2880 ng/mL and 3060 ng/mL and 2390 ng/mL
same,"plasma concentration, Hour 2","[1]; individual subjects, a.m. dosing, 12 hours prior to last active dose, 120 min",786 ng/mL and 1030 ng/mL and 889 ng/mL and 1460 ng/mL and 1360 ng/mL and 711 ng/mL and 1090 ng/mL and 840 ng/mL and 915 ng/mL and 1200 ng/mL and 1280 ng/mL and 1110 ng/mL and 1500 ng/mL
same,"plasma concentration, Hour 0","[1]; individual subjects, a.m. dosing, 14 hours prior to last active dose",1160 ng/mL and 1060 ng/mL and 1540 ng/mL and 1520 ng/mL and 1350 ng/mL and 901 ng/mL and 1370 ng/mL and 1080 ng/mL and 1180 ng/mL and 1720 ng/mL and 1360 ng/mL and 1800 ng/mL
same,"plasma concentration, Hour 38","[1]; individual subjects, a.m. dosing, 24 hours following last active dose, 1440 min",230 ng/mL and 318 ng/mL and 281 ng/mL and 346 ng/mL and 467 ng/mL and 319 ng/mL and 251 ng/mL and 361 ng/mL and 201 ng/mL and 157 ng/mL and 258 ng/mL and 263 ng/mL and 367 ng/mL
same,"plasma concentration, Hour 62","[1]; individual subjects, a.m. dosing, 48 hours following last active dose, 2880 min",39 ng/mL and 64 ng/mL and 27 ng/mL and 54 ng/mL and 73 ng/mL and 35 ng/mL and 53 ng/mL and 21 ng/mL and 16 ng/mL and 36 ng/mL
same,"plasma concentration, Hour 86","[1]; individual subjects, a.m. dosing",0 ng/mL
same,"plasma concentration, Hour 86","[1]; individual subjects, a.m. dosing, 4320 min",11 ng/mL and 16 ng/mL and 6 ng/mL and 13 ng/mL and 19 ng/mL and 7 ng/mL and 9 ng/mL and 17 ng/mL
same,"plasma concentration, Hour 14","[1]; individual subjects, a.m. dosing, immediately prior to last active dose, 840 min",271 ng/mL and 368 ng/mL and 243 ng/mL and 385 ng/mL and 479 ng/mL and 297 ng/mL and 210 ng/mL and 350 ng/mL and 204 ng/mL and 279 ng/mL and 317 ng/mL and 283 ng/mL and 419 ng/mL
same,Tmax,"[1]; individual subjects, a.m. dosing, sample hour scale",16 h and 0 h
same,Tmax,"[1]; individual subjects, p.m. dosing",14 h
same,"plasma concentration, Hour 0, mean","[1]; mean, a.m. dosing, 14 hours prior to last active dose",1300 ng/mL
same,drug concentrations in many body tissues and fluids versus systemic circulation,[2]; 400 mg oral,comparable to or higher than drug concentrations in systemic circulation
same,absorption rate,[2]; healthy volunteers,rapidly absorbed
same,time to steady-state,[2]; healthy volunteers,by the end of the second day of dosing
same,number of metabolites identified,[2]; human urine,5 metabolites
same,dose excreted,"[2]; human, feces, oral dose, read-out: unchanged drug recovered in the feces",~10%
same,Tmax,"[2]; human, serum, healthy volunteers, after dosing, read-out: time to peak serum concentrations",1 to 2 h
same,metabolism,[2]; in vivo,minimally metabolized
same,route of elimination,[2]; in vivo,primarily eliminated by renal excretion
same,oral absorption,[2]; orally-administered,one hundred
same,activity against most strains,Pseudomonas aeruginosa,active against most strains
same,"correlation coefficient, plasma concentration vs delayed MEDUVA",[3]; in vivo,-0.72
same,slope of regression of delayed MEDUVA on plasma concentration,[3]; p<0.001,-4.99
same,peak concentrations versus renal function,[4],not affected by the degree of renal function
same,discontinued because of adverse events,patients; 2869 patients,2.6%
same,"discontinued because of adverse events, central nervous system",patients; 2869 patients,0.5%
same,"discontinued because of adverse events, gastrointestinal system",patients; 2869 patients,0.7%
same,"discontinued because of adverse events, skin",patients; 2869 patients,1.0%
same,incidence of photosensitivity,patients; clinical trials,2.4%
same,photosensitivity and/or phototoxic reactions,patients; patients exposed to sunlight or artificial ultraviolet light,Moderate to severe photosensitivity and/or phototoxic reactions have occurred
same,incidence of diarrhea,patients; [9],1.4%
same,incidence of dizziness,patients; [9],2.3%
same,incidence of headache,patients; [9],3.2%
same,incidence of nausea,patients; [9],3.7%
same,mechanism of bactericidal action,[5],interference with the activity of the bacterial enzyme DNA gyrase
same,"MED, 0 H, mean",[6],0.094 J/cm^2
same,amount of UVA+UVB radiation to give MED versus UVA alone,[6],over 100 times less
same,change of immediate MEDUVA+UVB from baseline,[6],not statistically significant
same,change of immediate and delayed MEDUVA+UVB from baseline,[6],"neither the changes between baseline and posttreatment immediate MEDUVA+UVB, nor between baseline and posttreatment delayed MEDUVA+UVB, were statistically significant"
same,"change of immediate and delayed MEDUVA+UVB, a.m. versus p.m.",[6],statistically significant difference
same,photosensitivity with UVA plus UVB radiation,[6],no increase in photosensitivity
